Measured values as given in patent US6555333B1, “Broad spectrum fastidious organism culture medium” (priority 2002, dated 2003).
Where two headings read alike, the source gives them in different places.

What was measured:
[1] = test system: Haemophilus influenzae; settings: different known culture media; cited from earlier work
[2] = test system: Haemophilus influenzae; assay: MIC testing (Etest strip) on the culture medium of Example 1; assay type: cell-based; settings: for Observed MIC Breakpoints I: I = intermediate; for Observed MIC Breakpoints R: R = resistant; for Observed MIC Breakpoints S: S = susceptible
Description: (§1) The culture medium of the invention was used in both Minimum Inhibitory Concentration (MIC) testing and Bauer-Kirby Disk Susceptibility testing for the pathogenic bacteria noted in the table below with the antimicrobial agents noted therein using the protocol and standards set forth in NCCLS Bulletin No. M2-A7 and in the Supplemental Tables appendix thereto, the disclosures of which are incorporated herein by reference.
(§2) The general procedure was as follows: pathogenic bacteria specimens were obtained from American Type Culture Collection control lots and 10 isolates were obtained from all species except Campylobacter, from which 6 isolates were obtained. Petri dishes 150 mm in diameter were autoclaved and filled with the culture medium of Example 1 and brought to room temperature. Each plate was then swab-inoculated with a suspension of one of the pathogenic bacteria equivalent to a 0.5 McFarland Standard, and then the antimicrobial-impregnated disk or antimicrobial-impregnated strip for IC measurement (Etest strip from Biodisk AB, of Solna, Sweden) were pressed into the surface of the culture medium. The plates were incubated at 35° C. for 24 hours in atmospheres containing 5-7% CO2 and the disk diffusion zones were measured, with the exception that plates inoculated with the Campylobacter species were placed into microaerophilic chambers from Mitsubishi Gas & Chemical Co. of Japan and incubated at 35° C. for 48 hours. The tests were conducted in duplicate for each pathogenic bacteria/antimicrobial agent combination on three batches of the culture medium of Example 1, for a total of six tests for each combination. Geometric mean MIC values and arithmetic mean values of zone diameters from the Disk Diffusion tests were calculated from the data, and are reported in the table below.

[3] = test system: Haemophilus influenzae; assay: Bauer-Kirby Disk Susceptibility testing on the culture medium of Example 1; assay type: cell-based; settings: for Observed Disk Diff. Breakpoints I: I = intermediate; for Observed Disk Diff. Breakpoints R: R = resistant; for Observed Disk Diff. Breakpoints S: S = susceptible
Description: as §1, §2

[4] = test system: Viridans streptococci; settings: different known culture media; cited from earlier work
[5] = test system: S. pneumoniae; assay: MIC testing (Etest strip) on the culture medium of Example 1; assay type: cell-based; settings: for Observed MIC Breakpoints I: I = intermediate; for Observed MIC Breakpoints R: R = resistant; for Observed MIC Breakpoints S: S = susceptible
Description: as §1, §2

[6] = test system: Neisseria gonorrhoeae; assay: as above; assay type: cell-based; settings: for Observed MIC Breakpoints I: I = intermediate; for Observed MIC Breakpoints R: R = resistant; for Observed MIC Breakpoints S: S = susceptible
Description: as §1, §2

[7] = test system: Neisseria meningitides; assay: as above; assay type: cell-based
Description: as §1, §2

[8] = test system: Viridans streptococci; assay: as above; assay type: cell-based; settings: for Observed MIC Breakpoints I: I = intermediate; for Observed MIC Breakpoints R: R = resistant; for Observed MIC Breakpoints S: S = susceptible
Description: as §1, §2

[9] = test system: β-hemolytic streptococci; assay: as above; assay type: cell-based; settings: for Observed MIC Breakpoints S: S = susceptible
Description: as §1, §2

[10] = test system: Neisseria gonorrhoeae; settings: different known culture media; cited from earlier work
[11] = test system: Neisseria gonorrhoeae; assay: Bauer-Kirby Disk Susceptibility testing on the culture medium of Example 1; assay type: cell-based; settings: for Observed Disk Diff. Breakpoints I: I = intermediate; for Observed Disk Diff. Breakpoints R: R = resistant
Description: as §1, §2

[12] = test system: Neisseria meningitides; assay: as above; assay type: cell-based
Description: as §1, §2

[13] = test system: Viridans streptococci; assay: as above; assay type: cell-based; settings: for Observed Disk Diff. Breakpoints I: I = intermediate; for Observed Disk Diff. Breakpoints R: R = resistant; for Observed Disk Diff. Breakpoints S: S = susceptible
Description: as §1, §2

[14] = test system: β-hemolytic streptococci; assay: as above; assay type: cell-based; settings: for Observed Disk Diff. Breakpoints R: R = resistant
Description: as §1, §2

[15] = test system: S. pneumoniae; settings: different known culture media, cited from earlier work
[16] = test system: S. pneumoniae; assay: Bauer-Kirby Disk Susceptibility testing on the culture medium of Example 1; assay type: cell-based; settings: for Observed Disk Diff. Breakpoints R: R = resistant; for Observed Disk Diff. Breakpoints S: S = susceptible; for Observed Disk Diff. Breakpoints I: I = intermediate
Description: as §1, §2

[17] = test system: Campylobacter species; assay: MIC testing (Etest strip) on the culture medium of Example 1; assay type: cell-based; settings: microaerophilic, 48 hours; for Observed MIC Breakpoints R: R = resistant; for Observed MIC Breakpoints S: S = susceptible
Description: as §1, §2

[18] = test system: β-hemolytic streptococci; settings: different known culture media; cited from earlier work
[19] = test system: Campylobacter species; assay: Bauer-Kirby Disk Susceptibility testing on the culture medium of Example 1; assay type: cell-based; settings: microaerophilic, 48 hours; for Observed Disk Diff. Breakpoints R: R = resistant; for Observed Disk Diff. Breakpoints S: S = susceptible
Description: as §1, §2

O=C(N[C@H](CO)[C@H](O)c1ccc([N+](=O)[O-])cc1)C(Cl)Cl [Chloramphenicol]
Reported MIC Breakpoints [1]: (2-8) μg/mL | Observed MIC Breakpoints I [2]: 4 µg/mL | Observed MIC Breakpoints R [2]: ≧8 μg/mL | Observed MIC Breakpoints S [2]: ≦2 μg/mL | Observed Disk Diff. Breakpoints I [3]: 20-24 mm | Observed Disk Diff. Breakpoints R [3]: ≦19 mm | Observed Disk Diff. Breakpoints S [3]: ≧25 mm

Penicillin
Reported MIC Breakpoints [4]: (0.12-4) μg/mL | Observed MIC Breakpoints I ([5]; Lower Respiratory Tract): 2 µg/mL | Observed MIC Breakpoints R ([5]; Lower Respiratory Tract): ≧4 μg/mL | Observed MIC Breakpoints S ([5]; Lower Respiratory Tract): ≦1 μg/mL | Observed MIC Breakpoints I ([5]; meningitis): 0.25 to 1 µg/mL | Observed MIC Breakpoints R ([5]; meningitis): ≧2 μg/mL | Observed MIC Breakpoints S ([5]; meningitis): ≦0.12 μg/mL | Observed MIC Breakpoints I [6]: 0.12 to 1 µg/mL | Observed MIC Breakpoints R [6]: ≧2 μg/mL | Observed MIC Breakpoints S [6]: ≦0.06 μg/mL | Observed MIC Breakpoints I ([7]; I = intermediate): 0.25 µg/mL | Observed MIC Breakpoints R ([7]; R = resistant): ≧0.5 μg/mL | Observed MIC Breakpoints S ([7]; S = susceptible): ≦0.12 μg/mL | Observed MIC Breakpoints I [8]: 2 µg/mL | Observed MIC Breakpoints R [8]: ≧4 μg/mL | Observed MIC Breakpoints S [8]: ≦1 μg/mL | Observed MIC Breakpoints S [9]: 0.12 µg/mL | Reported MIC Breakpoints [10]: (0.06-2) μg/mL | Observed Disk Diff. Breakpoints I [11]: 24-38 mm | Observed Disk Diff. Breakpoints R [11]: ≦23 mm | Observed Disk Diff. Breakpoints I ([12]; I = intermediate): 24-25 mm | Observed Disk Diff. Breakpoints R ([12]; R = resistant): ≦23 mm | Observed Disk Diff. Breakpoints S ([12]; S = susceptible): ≧26 mm | Observed Disk Diff. Breakpoints I [13]: 20-23 mm | Observed Disk Diff. Breakpoints R [13]: ≦19 mm | Observed Disk Diff. Breakpoints S [13]: ≧24 mm | Observed Disk Diff. Breakpoints R [14]: ≦26 mm | Reported MIC Breakpoints ([15]; meningitis): (0.06-2) μg/mL

CC1(C)S[C@@H]2[C@H](NC(=O)[C@H](N)c3ccccc3)C(=O)N2[C@H]1C(=O)O [Ampicillin]
Reported MIC Breakpoints [1]: (1-4) μg/mL | Observed MIC Breakpoints I [2]: 8 µg/mL | Observed MIC Breakpoints R [2]: ≧16 μg/mL | Observed MIC Breakpoints S [2]: ≦4 μg/mL | Observed Disk Diff. Breakpoints I [3]: 13-16 mm | Observed Disk Diff. Breakpoints R [3]: ≦12 mm | Observed Disk Diff. Breakpoints S [3]: ≧17 mm

CO/N=C(\C(=O)N[C@@H]1C(=O)N2C(C(=O)O)=C(COC(C)=O)CS[C@H]12)c1csc(N)n1 [Cefotaxime]
Reported MIC Breakpoints [4]: (0.5-2) μg/mL | Observed MIC Breakpoints R ([5]; Lower Respiratory Tract): ≧8 μg/mL | Observed MIC Breakpoints S ([5]; Lower Respiratory Tract): ≦4 μg/mL | Observed MIC Breakpoints I ([5]; meningitis): 1 µg/mL | Observed MIC Breakpoints R ([5]; meningitis): ≧2 μg/mL | Observed MIC Breakpoints S ([5]; meningitis): ≦0.5 μg/mL | Observed MIC Breakpoints R [8]: ≧8 μg/mL | Observed Disk Diff. Breakpoints R ([16]; Lower Respiratory Tract): ≦23 mm | Observed Disk Diff. Breakpoints S ([16]; Lower Respiratory Tract): ≧24 mm | Observed Disk Diff. Breakpoints I ([16]; meningitis): 26-27 mm | Observed Disk Diff. Breakpoints R ([16]; meningitis): ≦25 mm | Observed Disk Diff. Breakpoints S ([16]; meningitis): ≧28 mm | Observed Disk Diff. Breakpoints R [13]: ≦23 mm | Observed Disk Diff. Breakpoints S [13]: ≧24 mm | Reported MIC Breakpoints ([15]; meningitis): (0.5-2) μg/mL

CC[C@H]1OC(=O)[C@H](C)[C@@H](O[C@H]2C[C@@](C)(OC)[C@@H](O)[C@H](C)O2)[C@H](C)[C@@H](O[C@@H]2O[C@H](C)C[C@H](N(C)C)[C@H]2O)[C@](C)(O)C[C@@H](C)C(=O)[C@H](C)[C@@H](O)[C@]1(C)O [Erythromycin]
Reported MIC Breakpoints [4]: (0.25-1) μg/mL | Observed MIC Breakpoints I [5]: 1 to 32 µg/mL | Observed MIC Breakpoints R [5]: ≧64 μg/mL | Observed MIC Breakpoints S [5]: ≦0.5 μg/mL | Observed MIC Breakpoints I [8]: 1 to 32 µg/mL | Observed MIC Breakpoints R [8]: ≧64 μg/mL | Observed MIC Breakpoints S [8]: ≦0.5 μg/mL | Observed MIC Breakpoints I ([9]; I = intermediate): 1 to 32 µg/mL | Observed MIC Breakpoints R ([9]; R = resistant): ≧64 μg/mL | Observed MIC Breakpoints S [9]: ≦0.5 μg/mL | Observed MIC Breakpoints R [17]: ≧8 μg/mL | Observed MIC Breakpoints S [17]: ≦4 μg/mL | Reported MIC Breakpoints [18]: (0.25-1) μg/mL | Observed Disk Diff. Breakpoints I [16]: 9-23 mm | Observed Disk Diff. Breakpoints R [16]: ≦8 mm | Observed Disk Diff. Breakpoints S [16]: ≧24 mm | Observed Disk Diff. Breakpoints I [13]: 9-23 mm | Observed Disk Diff. Breakpoints R [13]: ≦8 mm | Observed Disk Diff. Breakpoints S [13]: ≧24 mm | Observed Disk Diff. Breakpoints R [14]: ≦8 mm | Observed Disk Diff. Breakpoints S ([14]; S = susceptible): ≧21 mm | Observed Disk Diff. Breakpoints R [19]: ≦20 mm | Observed Disk Diff. Breakpoints S [19]: ≧21 mm | Reported MIC Breakpoints [15]: (0.25-1) μg/mL

CN(C)[C@@H]1C(O)=C(C(N)=O)C(=O)[C@@]2(O)C(O)=C3C(=O)c4c(O)cccc4[C@@](C)(O)[C@H]3C[C@@H]12 [Tetracycline]
Observed MIC Breakpoints I [5]: 2 to 4 µg/mL | Observed MIC Breakpoints R [5]: ≧8 μg/mL | Observed MIC Breakpoints S [5]: ≦1 μg/mL | Observed MIC Breakpoints I [2]: 4 µg/mL | Observed MIC Breakpoints R [2]: ≧8 μg/mL | Observed MIC Breakpoints S [2]: ≦2 μg/mL | Observed MIC Breakpoints I [8]: 2 to 4 µg/mL | Observed MIC Breakpoints R [8]: ≧8 μg/mL | Observed MIC Breakpoints S [8]: ≦1 μg/mL | Observed Disk Diff. Breakpoints I [16]: 14-22 mm | Observed Disk Diff. Breakpoints R [16]: ≦13 mm | Observed Disk Diff. Breakpoints S [16]: ≧23 mm | Observed Disk Diff. Breakpoints I [3]: 19-24 mm | Observed Disk Diff. Breakpoints R [3]: ≦20 mm | Observed Disk Diff. Breakpoints S [3]: ≧25 mm | Observed Disk Diff. Breakpoints I [13]: 18-22 mm | Observed Disk Diff. Breakpoints R [13]: ≦17 mm | Observed Disk Diff. Breakpoints S [13]: ≧23 mm

O=C(O)c1cn(C2CC2)c2cc(N3CCNCC3)c(F)cc2c1=O [Ciprofloxacin]
Observed MIC Breakpoints I [6]: 0.12 to 0.5 µg/mL | Observed MIC Breakpoints R [6]: ≧1 μg/mL | Observed MIC Breakpoints S [6]: ≦0.06 μg/mL | Observed MIC Breakpoints I ([17]; I = intermediate): 1 to 2 µg/mL | Observed MIC Breakpoints R [17]: ≧4 μg/mL | Observed MIC Breakpoints S [17]: ≦0.5 μg/mL | Reported MIC Breakpoints [10]: (0.06-1) μg/mL | Observed Disk Diff. Breakpoints I [11]: 25-34 mm | Observed Disk Diff. Breakpoints R [11]: ≦24 mm | Observed Disk Diff. Breakpoints S ([11]; S = susceptible): ≧35 mm | Observed Disk Diff. Breakpoints I ([19]; I = intermediate): 19-26 mm | Observed Disk Diff. Breakpoints R [19]: ≦18 mm | Observed Disk Diff. Breakpoints S [19]: ≧27 mm
